Data taken from ChEMBL document CHEMBL2321679, “Immunomodulatory activity of an anti-HSV-1 synthetic stigmastane analog” (Bioorg Med Chem, 2013).
Calls of active or inactive are those of the source. The calls are words filed in the database; no cut-off is given here.

Legend:
[1] = molecular target: Transcription factor p65 (Homo sapiens) (UniProt Q04206); test: Inhibition of NF-kappaB p65 activation in HSV1 KOS infected human HCLE cells assessed as reduction of NF-kappaB p65 translocation at 40 uM after 24 hrs by indirect immunofluorescence assay; format: cell-based
Chain of Transcription factor p65 (Homo sapiens) (Q04206 whole entry): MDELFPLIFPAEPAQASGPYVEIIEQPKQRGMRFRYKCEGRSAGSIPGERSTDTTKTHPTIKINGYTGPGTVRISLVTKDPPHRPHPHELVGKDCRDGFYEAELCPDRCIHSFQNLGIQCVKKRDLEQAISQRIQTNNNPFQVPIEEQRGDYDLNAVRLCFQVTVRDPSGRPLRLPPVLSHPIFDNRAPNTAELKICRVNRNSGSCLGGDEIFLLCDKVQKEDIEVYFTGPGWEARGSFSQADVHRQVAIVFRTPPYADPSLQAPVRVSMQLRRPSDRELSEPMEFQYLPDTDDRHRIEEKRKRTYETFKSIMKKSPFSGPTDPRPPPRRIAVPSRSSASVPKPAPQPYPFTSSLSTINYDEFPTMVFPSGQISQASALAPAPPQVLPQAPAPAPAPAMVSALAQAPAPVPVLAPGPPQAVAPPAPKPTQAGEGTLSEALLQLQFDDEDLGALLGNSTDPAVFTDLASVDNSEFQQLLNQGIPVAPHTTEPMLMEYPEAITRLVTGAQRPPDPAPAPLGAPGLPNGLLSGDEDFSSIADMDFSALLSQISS

[2] = molecular target: Transcription factor p65 (Homo sapiens) (UniProt Q04206); test: Inhibition of NF-kappaB p65-mediated IL-6 release in HSV1 KOS infected human IOBA-NHC cells at 40 uM after 24 hrs by ELISA; format: cell-based
[3] = molecular target: Transcription factor p65 (Homo sapiens) (UniProt Q04206); test: Inhibition of NF-kappaB p65-mediated IL-8 release in HSV1 KOS infected human IOBA-NHC cells at 40 uM after 24 hrs by ELISA; format: cell-based
[4] = molecular target: Transcription factor p65 (Homo sapiens) (UniProt Q04206); test: Inhibition of NF-kappaB p65-mediated IL-8 release in HSV1 KOS infected human HCLE cells at 40 uM after 24 hrs by ELISA; format: cell-based
[5] = molecular target: Transcription factor p65 (Mus musculus) (UniProt Q04207); test: Effect on NF-kappaB p65 activation in LPS-stimulated mouse J774A.1 cells assessed as NF-kappaB p65 translocation at 40 uM after 24 hrs by indirect immunofluorescence assay
Chain of Transcription factor p65 (Mus musculus) (Q04207 whole entry): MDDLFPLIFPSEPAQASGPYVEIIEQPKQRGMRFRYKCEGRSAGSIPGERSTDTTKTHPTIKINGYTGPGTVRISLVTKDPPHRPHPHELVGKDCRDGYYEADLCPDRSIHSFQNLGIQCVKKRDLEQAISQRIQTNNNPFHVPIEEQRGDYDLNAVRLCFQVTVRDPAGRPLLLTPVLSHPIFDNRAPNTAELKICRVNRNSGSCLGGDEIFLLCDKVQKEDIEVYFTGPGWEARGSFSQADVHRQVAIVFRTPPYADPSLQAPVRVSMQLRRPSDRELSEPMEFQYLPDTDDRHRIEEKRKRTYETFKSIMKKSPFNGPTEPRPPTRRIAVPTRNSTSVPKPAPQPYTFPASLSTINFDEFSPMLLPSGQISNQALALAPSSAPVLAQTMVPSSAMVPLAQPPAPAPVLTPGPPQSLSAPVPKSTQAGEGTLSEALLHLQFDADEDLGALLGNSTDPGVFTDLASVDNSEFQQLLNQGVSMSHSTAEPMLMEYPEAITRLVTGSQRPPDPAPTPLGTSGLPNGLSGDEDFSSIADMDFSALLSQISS

[6] = molecular target: Transcription factor p65 (Homo sapiens) (UniProt Q04206); test: Inhibition of NF-kappaB p65-mediated TNFalpha release in HSV1 KOS infected human IOBA-NHC cells at 40 uM after 24 hrs by ELISA; format: cell-based
[7] = molecular target: Transcription factor p65 (Homo sapiens) (UniProt Q04206); test: Inhibition of NF-kappaB p65 activation in HSV1 KOS infected human IOBA-NHC cells assessed as reduction of NF-kappaB p65 translocation at 40 uM after 24 hrs by indirect immunofluorescence assay; format: cell-based
[8] = molecular target: Transcription factor p65 (Homo sapiens) (UniProt Q04206); test: Increase of NF-kappaB p65-mediated IL-8 release in human IOBA-NHC cells at 40 uM after 24 hrs by ELISA; format: cell-based
J774.A1 [9] = test: Immunomodulatory activity in LPS-stimulated mouse J744A.1 cells assessed as increase of IL-10 gene expression at 40 uM after 6 hrs by RT-PCR analysis relative to control; format: functional
[10] = molecular target: Transcription factor p65 (Homo sapiens) (UniProt Q04206); test: Effect on NF-kappaB p65-mediated IL-6 release in human IOBA-NHC cells at 40 uM after 24 hrs by ELISA; format: cell-based
J774.A1 [11] = test: Immunomodulatory activity in LPS-stimulated mouse J744A.1 cells assessed as increase of Il12b gene expression at 40 uM after 6 hrs by RT-PCR analysis relative to control; format: functional
J774.A1 [12] = test: Inhibition of LPS-induced TNFalpha production in mouse J744A.1 cells after 24 hrs by ELISA; format: functional, cell-based
J774.A1 [13] = test: Immunomodulatory activity in LPS-stimulated mouse J744A.1 cells assessed as increase of CXCL11 gene expression at 40 uM after 6 hrs by RT-PCR analysis relative to control; format: functional
J774.A1 [14] = test: Immunomodulatory activity in LPS-stimulated mouse J744A.1 cells assessed as increase of TLR4 gene expression at 40 uM after 6 hrs by RT-PCR analysis relative to control; format: functional
[15] = Immunomodulatory activity in HSV1 KOS infected human HCLE cells assessed as increase of IL-1RL1 gene expression at 40 uM after 6 hrs by RT-PCR analysis relative to control; format: functional
J774.A1 [16] = test: Immunomodulatory activity in LPS-stimulated mouse J744A.1 cells assessed as increase of Ifi47 gene expression at 40 uM after 6 hrs by RT-PCR analysis relative to control; format: functional
[17] = molecular target: Transcription factor p65 (Homo sapiens) (UniProt Q04206); test: Effect on NF-kappaB p65-mediated TNFalpha release in human HCLE cells at 40 uM after 24 hrs by ELISA; format: cell-based
J774.A1 [18] = test: Immunomodulatory activity in LPS-stimulated mouse J744A.1 cells assessed as increase of Socs2 gene expression at 40 uM after 6 hrs by RT-PCR analysis relative to control; format: functional
J774.A1 [19] = test: Immunomodulatory activity in LPS-stimulated mouse J744A.1 cells assessed as increase of IL-6 gene expression at 40 uM after 6 hrs by RT-PCR analysis relative to control; format: functional
J774.A1 [20] = test: Immunomodulatory activity in LPS-stimulated mouse J744A.1 cells assessed as increase of CXCL10 gene expression at 40 uM after 6 hrs by RT-PCR analysis relative to control; format: functional
[21] = molecular target: Transcription factor p65 (Homo sapiens) (UniProt Q04206); test: Effect on NF-kappaB p65-mediated IL-6 release in human HCLE cells at 40 uM after 24 hrs by ELISA; format: cell-based
J774.A1 [22] = test: Immunomodulatory activity in LPS-stimulated mouse J744A.1 cells assessed as increase of Atf3 gene expression at 40 uM after 6 hrs by RT-PCR analysis relative to control; format: functional
J774.A1 [23] = test: Immunomodulatory activity in LPS-stimulated mouse J744A.1 cells assessed as decrease of Il1b gene expression at 40 uM after 6 hrs by RT-PCR analysis relative to control; format: functional
J774.A1 [24] = test: Inhibition of LPS-induced IL-6 production in mouse J744A.1 cells after 24 hrs by ELISA; format: functional, cell-based
J774.A1 [25] = test: Immunomodulatory activity in LPS-stimulated mouse J744A.1 cells assessed as increase of Il23a gene expression at 40 uM after 6 hrs by RT-PCR analysis relative to control; format: functional
J774.A1 [26] = test: Immunomodulatory activity in LPS-stimulated mouse J744A.1 cells assessed as increase of Slpi gene expression at 40 uM after 6 hrs by RT-PCR analysis relative to control; format: functional
J774.A1 [27] = test: Immunomodulatory activity in LPS-stimulated mouse J744A.1 cells assessed as decrease of Dusp2 gene expression at 40 uM after 6 hrs by RT-PCR analysis relative to control; format: functional
J774.A1 [28] = test: Inhibition of LPS-induced […] production in mouse J744A.1 cells at 40 uM after 24 hrs by ELISA; format: functional; settings: J774.A1, 24 h
[29] = Immunomodulatory activity in HSV1 KOS infected human HCLE cells assessed as increase of IL-8 gene expression at 40 uM after 6 hrs by RT-PCR analysis relative to control; format: functional
[30] = molecular target: Transcription factor p65 (Homo sapiens) (UniProt Q04206); test: Effect on NF-kappaB p65-mediated TNFalpha release in human IOBA-NHC cells at 40 uM after 24 hrs by ELISA; format: cell-based
[31] = Immunomodulatory activity in HSV1 KOS infected human HCLE cells assessed as increase of IL-1alpha gene expression at 40 uM after 6 hrs by RT-PCR analysis relative to control; format: functional
[32] = Immunomodulatory activity in HSV1 KOS infected human HCLE cells assessed as increase of CSF2 (GM-CSF) gene expression at 40 uM after 6 hrs by RT-PCR analysis relative to control; format: functional
[33] = Immunomodulatory activity in HSV1 KOS infected human HCLE cells assessed as increase of CXCL2 gene expression at 40 uM after 6 hrs by RT-PCR analysis relative to control; format: functional
J774.A1 [34] = test: Immunomodulatory activity in LPS-stimulated mouse J744A.1 cells assessed as increase of Csf1 gene expression at 40 uM after 6 hrs by RT-PCR analysis relative to control; format: functional
[35] = molecular target: Transcription factor p65 (Homo sapiens) (UniProt Q04206); test: Increase of NF-kappaB p65-mediated IL-8 release in human HCLE cells at 40 uM after 24 hrs by ELISA; format: cell-based

C[C@@H]1C[C@H]2[C@@H]3CCC4=CC(=O)C=C[C@]4(C)[C@@]3(F)[C@@H](O)C[C@]2(C)[C@@]1(O)C(=O)CO
inhibition [1]: inactive | inhibition [2]: Active | inhibition [3]: Active | inhibition [4]: Active | Activity [5]: 100% | inhibition [6]: Active | inhibition [7]: inactive

CC[C@@H](C(C)C)[C@H](O)[C@@H](O)[C@@H](C)[C@H]1CC[C@H]2[C@@H]3CCC4=CC(=O)CC[C@]4(C)[C@H]3CC[C@]12C
Activity [8]: Active | fold change (FC) (J774.A1 [9]): 1.27 | inhibition [1]: 5.7% | Activity [10]: inactive | inhibition [2]: inactive | fold change (FC) (J774.A1 [11]): 4.19 | inhibition (J774.A1 [12]): Dose-dependent effect | IC50 (J774.A1 [12]; J774.A1, 24 h): 7 µM | fold change (FC) (J774.A1 [13]): 6.01 | inhibition [3]: Active | inhibition [4]: Active | fold change (FC) (J774.A1 [14]): 1.95 | fold change (FC) [15]: 5.2 | fold change (FC) (J774.A1 [16]): 2.49 | Activity [17]: inactive | fold change (FC) (J774.A1 [18]): 2.29 | fold change (FC) (J774.A1 [19]): 1.97 | fold change (FC) (J774.A1 [20]): 11.41 | Activity [21]: inactive | fold change (FC) (J774.A1 [22]): 4.41 | fold change (FC) (J774.A1 [23]): 2.58 | inhibition (J774.A1 [24]): Dose-dependent effect | IC50 (J774.A1 [24]; J774.A1, 24 h): > 40 µM | fold change (FC) (J774.A1 [25]): 3.19 | fold change (FC) (J774.A1 [26]): 1.53 | fold change (FC) (J774.A1 [27]): 3.86 | inhibition at 40 µM (J774.A1 [28]): 77.5% | fold change (FC) [29]: 4.4 | Activity [30]: inactive | Activity [5]: 87.9% | fold change (FC) [31]: 2.9 | fold change (FC) [32]: 2.2 | fold change (FC) [33]: 2.9 | inhibition [6]: inactive | fold change (FC) (J774.A1 [34]): 4.42 | inhibition [7]: 22.2% | Activity [35]: Active
